Experimental data published in patent publication US20100035943A1, “Oxa-and thiadiazoles and their use as metalloproteinase inhibitors” (VERNALIS (OXFORD) LTD, priority 2002, published 2010).

Experiments:
92 kDa gelatinase (MMP9) = 92 kDa gelatinase (MMP9) (Homo sapiens, UniProt P14780); assay: MMP9 enzyme inhibition assay (fluorogenic peptide substrate McaPLGLDpaAR); assay type: biochemical; settings: recombinant human 92 kDa gelatinase, 37° C., 2 hours
Experimental: (§1) Compounds were tested for inhibitory activity against 92 kDa gelatinase (MMP9) in an assay using a coumarin-labelled peptide substrate, (7-methoxycoumarin-4-yl)acetyl-Pro-Leu-Gly-Leu-(3-[2,4-dinitrophenyl]-L-2,3-diaminopropionyl)-Ala-Arg-NH2 (McaPLGLDpaAR) (Knight et al, FEBS Lett. 1992; 263-266).
(§2) Stock solutions were made up as follows: • Assay Buffer: 100 mM Tris-HCl pH 7.6 containing 100 mM NaCl, 10 mM CaCl2, and 0.05% Brij 35 • Substrate: 0.4 mM McaPLGLDpaAR (from Bachem) (0.437 mg/ml) stock solution in 100% DMSO (stored at −20° C.). Dilute to 8 μM in assay buffer. • Enzyme: Recombinant human 92 kDa gelatinase (MMP-9; APMA (4-aminophenyl • mercuric acetate)—activated if necessary) appropriately diluted in assay buffer.
(§3) Test Compounds were prepared initially as 10 mM compound solution in 100% DMSO, diluted to 1 mM in 100% DMSO, then serially diluted 3-fold in 100% DMSO across columns 1-10 of a 96-well microtitre plate Assay concentration range, 100 μM (column 1) to 5.1 nM (column 10)
(§4) The assay was performed in a total volume of 100 μl per well in 96-well microtitre plates. Activated enzyme (20 μl) was added to the wells followed by 20 μl of assay buffer. Appropriate concentrations of test compounds dissolved in 10 μl of DMSO were then added followed by 50 μl of McaPLGLDpaAR (8 μM, prepared by dilution of DMSO stock in assay buffer). For each assay ten concentrations of test compound were examined in duplicate. Control wells lack either enzyme or test compound. The reactions were incubated at 37° C. for 2 hours. The fluorescence at 405 nm was measured immediately with an SLT Fluostar fluorometer (SLT Labinstruments GmbH, Grödig, Austria) using 320 nm excitation, without stopping the reaction.
(§5) The effect of the test compound was determined from the dose response curve generated by the 10 duplicate concentrations of inhibitor. The IC50 (the concentration of compound required to give a 50% decrease in enzyme activity) was obtained by fitting data to the equation, Y=a+((b−a)/(1+(c/X)^d)). (Y=inhibition achieved for a particular dose; X=the dose in nM; a=minimum y or zero % inhibition; b=maximum y or 100% inhibition; c=is the IC50; d=is the slope). The result was rounded to one significant figure.

metalloelastase (MMP12) = metalloelastase (MMP12) (Homo sapiens, UniProt P39900); assay: MMP12 enzyme inhibition assay (fluorogenic peptide substrate McaPLGLDpaAR); assay type: biochemical; settings: protocol as for MMP9 assay
Experimental: as §2, §3, §4, §5
as §1, with “metalloelastase (MMP12)” for “92 kDa gelatinase (MMP9)”, “263-266). The protocol for this assay was as described for the MMP9 assay above.” for “263-266).”

[1] = system: IL2-induced lymphocyte recruitment; assay: IL2-induced peritoneal recruitment of lymphocytes; assay type: in vivo, C3H/HEN mice; settings: mice, 15 min prior to IL2, cells counted 24 hours after IL2
Experimental: Administration of IL2 intraperitoneally causes migration of lymphocytes into the intraperitoneal cavity. This is a model for the cellular migration that occurs during inflammation.
C3H/HEN mice (Elevage Janvier, France) were intraperitoneally injected with IL2 (Serono Pharmaceutical Research Institute, 20 μg/kg, in saline). Compounds of the invention were suspended in 0.5% carboxymethylcellulose (CMC)/0.25% tween-20 and were administered by sc or po route (10 ml/kg) 15 min prior to administration of IL2.
Twenty-four hours after administration of IL2, peritoneal white blood cells were collected by 3 successive lavages of the peritoneal cavity with 5 ml phosphate buffered saline (PBS)-1 mM EDTA (+4° C.). The suspension was centrifuged (1700 g×10 min at +4° C.). The resulting pellet was suspended in 1 ml PBS-1 mM EDTA.
Lymphocytes were identified and counted using a Beckman/Coulter counter.
The animals were divided into 5 groups (6 mice each group):
Group 1: (baseline) received 0.5% CMC/0.25% tween-20 (vehicle of compound of the invention) and saline (vehicle of IL2); Group 2: (control IL2) received 0.5% CMC/0.25% tween-20 and injection of IL2; Group 3: Experimental group (Compound of the invention Dose 1) received a compound of the invention and injection of IL2; Group 4: Experimental group (Compound of the invention Dose 2) received a compound of the invention and injection of IL2; Group 5: Experimental group (Compound of the invention Dose 3) received a compound of the invention and injection of IL2; Group 6: Reference group received reference compound dexamethasone and injection of IL2
Inhibition of lymphocyte recruitment was calculated as follows:
Where Ly 1=Number of lymphocytes in group 1 (E3/μl), Ly 2=Number of lymphocytes in group 2 (E3/μl), Ly X=Number of lymphocytes in group X (3-5) (E3/μl)
The dose of compound of the invention required to inhibit lymphocyte recruitment by 50% (ID50) was calculated using a curve-fitting routine.

92 kDa gelatinase (MMP9), sequence (P14780 107-707 limits assumed): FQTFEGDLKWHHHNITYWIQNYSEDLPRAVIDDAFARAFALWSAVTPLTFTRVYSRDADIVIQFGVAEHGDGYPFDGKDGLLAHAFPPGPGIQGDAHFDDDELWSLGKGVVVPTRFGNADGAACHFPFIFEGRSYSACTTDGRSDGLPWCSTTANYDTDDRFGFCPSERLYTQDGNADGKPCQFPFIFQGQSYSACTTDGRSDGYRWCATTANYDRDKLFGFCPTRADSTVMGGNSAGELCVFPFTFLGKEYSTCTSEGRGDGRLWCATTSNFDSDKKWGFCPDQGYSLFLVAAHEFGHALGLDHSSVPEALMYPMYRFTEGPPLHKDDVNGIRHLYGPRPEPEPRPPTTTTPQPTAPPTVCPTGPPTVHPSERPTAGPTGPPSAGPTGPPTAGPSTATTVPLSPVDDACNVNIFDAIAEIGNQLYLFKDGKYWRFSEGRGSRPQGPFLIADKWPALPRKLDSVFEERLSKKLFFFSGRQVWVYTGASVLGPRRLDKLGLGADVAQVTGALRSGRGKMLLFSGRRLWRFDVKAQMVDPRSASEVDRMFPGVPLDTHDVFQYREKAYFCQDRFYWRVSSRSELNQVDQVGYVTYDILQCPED
metalloelastase (MMP12), sequence (P39900 106-470): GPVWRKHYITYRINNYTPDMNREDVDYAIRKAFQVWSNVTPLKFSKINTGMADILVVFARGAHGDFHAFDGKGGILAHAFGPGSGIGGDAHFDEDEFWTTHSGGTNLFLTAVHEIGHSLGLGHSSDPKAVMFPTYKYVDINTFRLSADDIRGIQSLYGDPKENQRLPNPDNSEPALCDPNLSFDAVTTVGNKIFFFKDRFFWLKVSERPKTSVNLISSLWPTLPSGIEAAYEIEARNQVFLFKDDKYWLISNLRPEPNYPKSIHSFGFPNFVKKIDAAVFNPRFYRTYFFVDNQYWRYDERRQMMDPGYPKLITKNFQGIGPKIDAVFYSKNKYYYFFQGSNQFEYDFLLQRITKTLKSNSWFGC

CC(C)C[C@@H](C(=O)N[C@H](c1noc(-c2cccs2)n1)C(C)(C)C)[C@H](O)C(=O)NO [Example 13, 2S-Hydroxy-3R-[1S-(5-thiophen-2-yl-[1,2,4]oxadiazol-3-yl)-2,2-dimethyl-propylcarbamoyl]-5-methyl Hexanohydroxamic Acid]
IC50 (92 kDa gelatinase (MMP9)): 100 to 1000 nM | IC50 (metalloelastase (MMP12)): < 100 nM | ID50 for inhibition of IL2-induced peritoneal recruitment of lymphocytes ([1]; Oral route): 1 mg/kg | ID50 for inhibition of IL2-induced peritoneal recruitment of lymphocytes ([1]; Subcutaneous route): 0.1 mg/kg
